Consider 22 compounds from patent publication US20090124672A1 (priority 2007, published 2009).

The target in test [1] is T1, hALDH2 (recombinant human mitochondria ALDH) (Homo sapiens, UniProt P05091).
T1 sequence (P05091 18-517): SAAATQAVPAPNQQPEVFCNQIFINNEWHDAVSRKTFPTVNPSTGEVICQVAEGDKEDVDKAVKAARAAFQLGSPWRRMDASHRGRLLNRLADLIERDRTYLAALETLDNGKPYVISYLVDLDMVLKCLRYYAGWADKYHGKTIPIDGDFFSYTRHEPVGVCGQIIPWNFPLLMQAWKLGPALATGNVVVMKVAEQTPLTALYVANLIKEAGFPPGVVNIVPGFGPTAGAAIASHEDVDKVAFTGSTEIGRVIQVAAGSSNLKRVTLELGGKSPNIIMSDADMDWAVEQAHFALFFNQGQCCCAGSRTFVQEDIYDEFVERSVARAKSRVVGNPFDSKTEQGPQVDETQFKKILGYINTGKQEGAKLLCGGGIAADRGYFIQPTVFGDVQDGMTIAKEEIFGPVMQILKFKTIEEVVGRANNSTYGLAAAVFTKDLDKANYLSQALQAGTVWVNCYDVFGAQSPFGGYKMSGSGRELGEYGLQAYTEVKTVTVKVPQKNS
Nature of the test: ALDH2 inhibition assay (NADH formation, formaldehyde substrate). It is filed as biochemical. As to conditions: for inhibition at 1 µM: read-out: hALDH2 inhibition (IC50 hALDH2 column). Here is the method:
ALDH2 inhibition assays were performed in sodium phosphate buffer (50 mM, pH 7.4) containing 1.2 mM NAD^+ (Sigma N7004), 1 nM hALDH2 (recombinant human mitochondria ALDH), various concentrations of test compounds (from 0.03 nM to 1000 nM), and 0.15 mM freshly prepared formaldehyde solution (Ladd Research 20295). Reactions were initiated by the addition of formaldehyde and rates were recorded by monitoring NADH formation in a temperature controlled (25° C.) FluoroMax-2 Fluorimeter with excitation and emission wavelengths set at 340 and 460 nm, respectively. […] Normally, IC50 values were determined by fitting concentration-inhibition data to sigmoidal dose-response curves with two-floating parameters: IC50 and Hill coefficient. When tight binding situation was suspected, apparent Ki values were estimated by fitting dose-response data to Morrison's equation [Methods in Enzymology 63, 437-467, 1979].

The target in a further test is T2, hMAO-B (Homo sapiens, UniProt P27338).
T2 construct: purchased Sigma M7441
T2 sequence (P27338 1-520): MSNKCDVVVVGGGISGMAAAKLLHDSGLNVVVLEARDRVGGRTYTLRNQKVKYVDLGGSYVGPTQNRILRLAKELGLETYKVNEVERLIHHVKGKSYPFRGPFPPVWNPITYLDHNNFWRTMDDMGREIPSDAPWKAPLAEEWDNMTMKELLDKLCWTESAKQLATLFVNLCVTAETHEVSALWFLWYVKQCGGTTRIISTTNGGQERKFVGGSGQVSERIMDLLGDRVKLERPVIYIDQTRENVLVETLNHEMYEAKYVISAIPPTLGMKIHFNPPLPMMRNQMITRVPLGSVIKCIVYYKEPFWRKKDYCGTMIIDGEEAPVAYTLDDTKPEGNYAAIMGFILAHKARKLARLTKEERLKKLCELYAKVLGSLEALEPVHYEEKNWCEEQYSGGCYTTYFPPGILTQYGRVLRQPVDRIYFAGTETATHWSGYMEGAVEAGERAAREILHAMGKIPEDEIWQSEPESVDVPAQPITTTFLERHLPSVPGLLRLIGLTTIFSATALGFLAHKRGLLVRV
Nature of the test: MAO-B inhibition assay (Amplex Red, horseradish peroxidase-coupled). It is filed as biochemical. The following applies: for hMAO-B inhibition (IC50 hMAO-B) / inhibition at 10 µM: at 10 μM; for inhibition at 10 µM: read-out: hMAO-B inhibition (IC50 hMAO-B). Here is the method:
MAO-A (Sigma M7316) and MAO-B (Sigma M7441) inhibition assays were conducted in 96-well micro-plates according to the method described by Zhou et al. [Analytical Biochemistry 253, 169-174, 1997]. Both assays were performed in potassium phosphate buffer (0.1 M, pH 7.5) containing 0.5 mM tyramine (Sigma T2879), 0.12 mM N-acetyl-3,7-dihydrophenoxazine (Amplex Red, Invitrogen A12222), 1.2 unit/ml horseradish peroxidase (Sigma P2088), 0.6 unit/ml MAO-A or 2.5 unit/ml MAO-B, and various concentrations of test compounds (0.1 nM to 10 uM). Reactions were initiated by the addition of a pre-mixed solution of tyramine, horseradish peroxidase and Amplex Red, and were allowed to proceed at 37° C. for 30 min. Enzyme activities were determined by measuring absorbance at 570 nm (SpectralMax Plate reader), absorbance of oxidized Amplex Red generated by this horseradish peroxidase-coupled reaction. Nonspecifically formed products were determined in the presence of 2 and 10 µM clorgyline and deprenyl for MAO-A and MAO-B, respectively. IC50 values were determined by fitting concentration-inhibition data to sigmoidal dose-response curves with two-floating parameters: IC50 and Hill coefficient.

Several values for one entry are separate records, joined by “and”; a condition that tells them apart may be missing. Equal entries are not always repeated.

One may read the IC50 as the point on the concentration scale where inhibition reaches its midpoint. “3-(4-hydroxyphenyl)-7-(2-{4-[3-(trifluoromethyl)phenyl]piperazinyl}ethoxy)chromen-4-one [PT-124]”: in test [1], the IC50 came out at 18 nM. Besides, the “hMAO-B inhibition (IC50 hMAO-B)” value at hMAO-B is recorded as 21%.
For the compound “3-(4-hydroxyphenyl)-7-[(5-(3-pyridyl)(1,3,4-oxadiazol-2-yl))ethoxy]chromen-4-one [PT-113]”, the IC50 in test [1] is 17 nM. Further, the “hMAO-B inhibition (IC50 hMAO-B)” value at hMAO-B was 30%.
Taken in the same sequence, the figures for “7-({5-[3-fluoro-5-(trifluoromethyl)phenyl](1,2,4-oxadiazol-3-yl)}ethoxy)-3-(4-hydroxyphenyl)chromen-4-one [PT-79]” were 48 nM and 18%.
Usually inhibition stands for the drop in the measured response relative to a control, in per cent. Consider `O=c1c(-c2ccc(O)cc2)coc2cc(OCc3noc(-c4ccc(F)cc4)n3)ccc12` [PT-11, 7-{[5-(4-fluorophenyl)(1,2,4-oxadiazol-3-yl)]methoxy}-3-(4-hydroxyphenyl)chromen-4-one], for which the half-maximal inhibitory concentration (IC50) in test [1] was 16 nM and 20 nM. The inhibition at 10 µM on hMAO-B came to 35%.
Turning to `COC(=O)c1cccc(COc2ccc3c(=O)c(-c4ccc(O)cc4)coc3c2)c1` [PT-33, methyl 3-{[3-(4-hydroxyphenyl)-4-oxochromen-7-yloxy]methyl}benzoate], the half-maximal inhibitory concentration (IC50) in test [1] was determined as 150 nM; on hMAO-B, 300 nM.
Consider `O=c1c(-c2ccc(O)cc2)coc2cc(OCc3cc(-c4cccc(C(F)(F)F)c4)on3)ccc12` [PT-45, 3-(4-hydroxyphenyl)-7-({5-[3-(trifluoromethyl)phenyl]isoxazol-3-yl}methoxy)chromen-4-one], for which the IC50 in test [1] was 98 nM. Moreover, at hMAO-B, the “hMAO-B inhibition (IC50 hMAO-B)” value came out at 7% and the inhibition at 10 µM amounted to 7%.
Turning to `COC(=O)c1cnc(COc2ccc3c(=O)c(-c4ccc(O)cc4)coc3c2)o1` [PT-47, methyl 2-{[3-(4-hydroxyphenyl)-4-oxochromen-7-yloxy]methyl}-1,3-oxazole-5-carboxylate], in test [1], the IC50 is 5 nM. Besides, the inhibition at 10 µM at hMAO-B is 34%.
For the compound `O=c1c(-c2ccc(O)cc2)coc2cc(OC[C@H](O)CNCc3cccc(C(F)(F)F)c3)ccc12` [PT-53, 7-[(2R)-2-hydroxy-3-({[3-(trifluoromethyl)phenyl]methyl}amino)propoxy]-3-(4-hydroxyphenyl)chromen-4-one], in test [1], the IC50 came to 16 nM. In addition, on hMAO-B, the “hMAO-B inhibition (IC50 hMAO-B)” value was 19% and the inhibition at 10 µM worked out at 19%.
Regarding `O=c1c(-c2ccc(O)cc2)coc2cc(OC[C@H](O)CNCc3cc(F)cc(F)c3)ccc12` [PT-55, 7-((2R)-3-{[(3,5-difluorophenyl)methyl]amino}-2-hydroxypropoxy)-3-(4-hydroxyphenyl)chromen-4-one], in test [1], the IC50 stood at 8 nM. Besides, on hMAO-B, the “hMAO-B inhibition (IC50 hMAO-B)” value was determined as 14% and the inhibition at 10 µM was determined as 14%.
For the compound `C[C@@H](NCC(=O)COc1ccc2c(=O)c(-c3ccc(O)cc3)coc2c1)c1ccc(F)cc1` [PT-56, 7-(3-{[(1R)-1-(4-fluorophenyl)ethyl]amino}-2-oxopropoxy)-3-(4-hydroxyphenyl)chromen-4-one], in test [1], the 50% inhibitory concentration (IC50) turned out to be 8 nM. The inhibition at 10 µM on hMAO-B was determined as 29%.
In the case of `O=c1c(-c2ccc(O)cc2)coc2cc(OCCCc3ccccc3)ccc12` [PT-57, 3-(4-hydroxyphenyl)-7-(3-phenylpropoxy)chromen-4-one], in test [1], the concentration for half-maximal inhibition (IC50) stood at 20 nM. On hMAO-B, the “hMAO-B inhibition (IC50 hMAO-B)” value is 27% and the inhibition at 10 µM is 27%.
For `O=c1c(-c2ccc(O)cc2)coc2cc(OCc3nnc(-c4cccc(F)c4)o3)ccc12` [PT-58, 7-{[5-(3-fluorophenyl)(1,3,4-oxadiazol-2-yl)]methoxy}-3-(4-hydroxyphenyl)chromen-4-one], in test [1], the IC50 is 11 nM. Further, at hMAO-B, the inhibition at 10 µM was 25%.
Take `O=c1c(-c2ccc(O)cc2)coc2cc(OCCc3cccc(C(F)(F)F)c3)ccc12` [PT-59, 3-(4-hydroxyphenyl)-7-{[3-(trifluoromethyl)phenyl]ethoxy}chromen-4-one]: in test [1], the IC50 was determined as 670 nM. Moreover, the “hMAO-B inhibition (IC50 hMAO-B)” value at hMAO-B is given as 24%.
Consider `O=c1c(-c2ccc(O)cc2)coc2cc(OCc3nnc(-c4cccc(C(F)(F)F)c4)o3)ccc12` [PT-60, 3-(4-hydroxyphenyl)-7-({5-[3-(trifluoromethyl)phenyl](1,3,4-oxadiazol-2-yl)}methoxy)chromen-4-one], for which the IC50 in test [1] was determined as 42 nM. Further, on hMAO-B, the inhibition at 10 µM was 13%.
In the case of `O=c1c(-c2ccc(O)cc2)coc2cc(OCc3cnc(-c4ccccc4)o3)ccc12` [PT-61, 3-(4-hydroxyphenyl)-7-[(2-phenyl(1,3-oxazol-5-yl))methoxy]chromen-4-one], the IC50 in test [1] came out at 96 nM. For the same compound, the inhibition at 10 µM at hMAO-B amounted to 17%.
Regarding `O=c1c(-c2ccc(O)cc2)coc2cc(OCc3nnc(-c4ccccc4Cl)s3)ccc12` [PT-64, 7-{[5-(2-chlorophenyl)(1,3,4-thiadiazol-2-yl)]methoxy}-3-(4-hydroxyphenyl)chromen-4-one], the inhibition at 1 µM in test [1] was 43%. In addition, at hMAO-B, the inhibition at 10 µM was found to be 8%.
On to `Cc1nc(-c2ccc(C(F)(F)F)cc2)sc1COc1ccc2c(=O)c(-c3ccc(C#N)cc3)coc2c1` [PT-65, 4-[7-({4-methyl-2-[4-(trifluoromethyl)phenyl](1,3-thiazol-5-yl)}methoxy)-4-oxochromen-3-yl]benzenecarbonitrile], for which, in test [1], the inhibition at 1 µM is 30%. In addition, the inhibition at 10 µM on hMAO-B was determined as 25%.
In the case of `Cc1nc(-c2ccc(C(F)(F)F)cc2)sc1COc1ccc2c(=O)c(-c3ccc(NS(C)(=O)=O)cc3)coc2c1` [PT-66, 3-{4-[(methylsulfonyl)amino]phenyl}-7-({4-methyl-2-[4-(trifluoromethyl)phenyl](1,3-thiazol-5-yl)}methoxy)chromen-4-one], the inhibition at 1 µM in test [1] was 48%. Moreover, the inhibition at 10 µM at hMAO-B is 25%.
Taken in the same sequence, the figures for `COc1ccc(-c2coc3cc(OCc4sc(-c5ccc(C(F)(F)F)cc5)nc4C)ccc3c2=O)cn1` [PT-67, 3-(6-methoxy(3-pyridyl))-7-({4-methyl-2-[4-(trifluoromethyl)phenyl](1,3-thiazol-5-yl)}methoxy)chromen-4-one] were 25% and 16%.
Regarding `CS(=O)(=O)Nc1ccc(-c2coc3cc(OCc4nnc(-c5ccc(F)cc5)o4)ccc3c2=O)cc1` [PT-120, 7-{[5-(4-fluorophenyl)(1,3,4-oxadiazol-2-yl)]methoxy}-3-{4-[(methylsulfonyl)amino]-phenyl}chromen-4-one], the IC50 in test [1] is 276 nM.
Turning to `Nc1cccc(-c2nnc(COc3ccc4c(=O)c(-c5ccc(O)cc5)coc4c3)o2)c1` [PT-121, 7-{[5-(3-aminophenyl)(1,3,4-oxadiazol-2-yl)]methoxy}-3-(4-hydroxyphenyl)chromen-4-one], in test [1], the IC50 is 11 nM.
The same measure, in the same setting: as for `CCOC(=O)c1cnn(CCOc2ccc3c(=O)c(-c4ccc(O)cc4)coc3c2)c1` [PT-122, ethyl 1-{2-[3-(4-hydroxyphenyl)-4-oxochromen-7-yloxy]ethyl}pyrazole-4-carboxylate], the figure is 12 nM.
